These are literature values, as cited in patent publication US20090186834A1, “DIPHENYLHETEROCYCLE CHOLESTEROL ABSORPTION INHIBITORS” (MICROBIA, INC., priority 2005, published 2009).

Data set [1] concerns fat-SOluble vitamin absorption. Conditions: in humans.
In data set [2] the test system is absorption of taurocholic acid. Conditions: in vivo.

`O=C1[C@H](CC[C@H](O)c2ccc(F)cc2)[C@@H](c2ccc(O)cc2)N1c1ccc(F)cc1` [ezetimibe, (3R,4S)-1-(4-fluorophenyl)-3-[(3S)-3-(4-fluorophenyl)-3-hydroxypropyl]-4-(4-hydroxyphenyl)azetidin-2-one]: the “effect on fat-SOluble vitamin absorption” value in data set [1] is given as “does not appear to affect”. In addition, in data set [2], the “inhibition of the absorption of taurocholic acid” value is listed as “does not inhibit”.
